According to patent US8889878B2, “Haloalky-substituted amides as insecticides and acaricides” (Bayer CropScience AG, priority 2009, dated 2014):

Key:
Ctenocephalides felis = Ctenocephalides felis oral (CTECFE), Example 2; format: in vivo; details: application rate 20 ppm in citrated cow's blood, after 2 days
Method: Ctenocephalides felis Oral ([…]) • Solvent: 1 part by weight of dimethyl sulphoxide For the purpose of preparing an active ingredient formulation, 10 mg of active ingredient are mixed with 0.5 ml of dimethyl sulphoxide. A portion of the concentrate was diluted with citrated cow's blood and the desired concentration was prepared. 20 unfed adult fleas (Ctenocephalides felis) are placed into a chamber sealed at the top and bottom with gauze. A metal cylinder with its lower end sealed with Parafilm is placed onto the chamber. The cylinder contains the blood-active ingredient preparation, which can be consumed by the fleas through the Parafilm membrane. After 2 days, the kill rate in % is determined. 100% means that all fleas were killed; 0% means that no fleas were killed.

[1] = logP by HPLC on reverse-phase column (EEC Directive 79/831 Annex V.A8); format: physicochemical; details: for logP: HPLC-MS
Method: The logP values reported in the above Tables and Preparation Examples were determined according to EEC Directive 79/831 Annex V.A8 by HPLC (High Performance Liquid Chromatography) on a reverse-phase column (C18). Temperature 43° C.

Boophilus microplus [2] = test: Boophilus microplus test (BOOPMI injection), Example 11; format: in vivo; details: application rate 20 μg/animal, injected into abdomen, after 7 days
How it was run: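 Adult ticks injected in the abdomen with compound diluted in DMSO, then held in a climate-controlled room. Efficacy in % determined after 7 days from fertile eggs laid; 100% means no tick laid fertile eggs.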

[3] = tested on: mustard beetle (Phaedon cochleariae); test: Phaedon test (PHAECO spray treatment), Example 7; format: in vivo; details: application rate 20 g/ha, china cabbage leaf discs sprayed, after 7 days
How it was run: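 Spray formulation (acetone/DMF with alkylaryl polyglycol ether, diluted in emulsifier-containing water) applied to Chinese cabbage leaf discs, which were dried and then stocked with mustard beetle larvae. Efficacy scored at 7 days as % larvae killed (100% all, 0% none).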

[4] = tested on: green peach aphid (Myzus persicae); test: Myzus test (MYZUPE spray treatment), Example 17; format: in vivo; details: china cabbage leaf discs sprayed, after 6 days
How it was run: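 Chinese cabbage leaf discs infested with all aphid stages were sprayed with compound formulated in acetone/dimethylformamide plus alkylaryl polyglycol ether emulsifier, diluted in emulsifier-containing water. Mortality read after 6 days as % efficacy (100% all killed, 0% none killed).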

Lucilia cuprina larvae [5] = test: Lucilia cuprina test (LUCICU), Example 3; format: in vivo; details: application rate 20 ppm, treated horsemeat, after 2 days
Method: (§1) Lucilia cuprina Test (LUCICU) • Solvent: dimethyl sulphoxide To prepare an active ingredient formulation, 10 mg of active ingredient are mixed with 0.5 ml of dimethyl sulphoxide, and the concentrate is diluted with water to the desired concentration. Vessels containing horsemeat which has been treated with the active ingredient formulation of the desired concentration are populated with Lucilia cuprina larvae. After 2 days, the kill rate in % is determined. 100% means that all larvae were killed; 0% means that no larvae were killed.

Boophilus microplus [6] = test: Boophilus microplus test (BOOPMI injection), Example 1; format: in vivo; details: application rate 20 μg/animal, injected into abdomen, after 7 days
Method: Boophilus microplus Test (BOOPMI Injection) • Solvent: dimethyl sulphoxide To prepare an active ingredient formulation, 10 mg of active ingredient are mixed with 0.5 ml of solvent and the concentrate is diluted with water to the desired concentration. The active ingredient solution was injected into the abdomen (Boophilus microplus), and the animals were transferred to dishes and stored in a climate-controlled room. The efficacy was assessed by the number of fertile eggs laid. After 7 days, the efficacy in % is determined. 100% means that no tick laid fertile eggs.

Lucilia cuprina larvae [7] = test: Lucilia cuprina test (LUCICU), Example 13; format: in vivo; details: application rate 100 ppm, treated horsemeat, after 2 days
Method: as §1, with “prepare an appropriate active ingredient” for “prepare an active ingredient”, “populated with about 20 Lucilia cuprina” for “populated with Lucilia cuprina”

Musca domestica adults = test: Musca domestica test (MUSCDO), Example 14; format: in vivo; details: application rate 100 ppm, treated sponge, after 2 days
Method: Musca domestica Test (MUSCDO) • Solvent: dimethyl sulphoxide To prepare an appropriate active ingredient formulation, 10 mg of active ingredient are mixed with 0.5 ml of dimethyl sulphoxide, and the concentrate is diluted with water to the desired concentration. Vessels containing a sponge which has been treated with the active ingredient formulation of the desired concentration are populated with Musca domestica adults. After 2 days, the kill rate in % is determined. 100% means that all flies were killed; 0% means that no flies were killed.

[8] = tested on: red spider mite (Tetranychus urticae); test: Tetranychus test, OP-resistant (TETRUR spray treatment), Example 8; format: in vivo; details: application rate 20 g/ha, common bean leaf discs sprayed, after 6 days
How it was run: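 Bean (Phaseolus vulgaris) leaf discs carrying all stages of OP-resistant Tetranychus urticae sprayed with compound in acetone/DMF with emulsifier, diluted in water to the test concentration. Mortality scored after 6 days as % efficacy (100% = all mites killed).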

[9] = tested on: armyworm (Spodoptera frugiperda); test: Spodoptera frugiperda test (SPODFR spray treatment), Example 15; format: in vivo; details: application rate 100 g/ha, maize leaf discs sprayed, after 7 days
How it was run: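 Maize leaf discs sprayed with active ingredient in acetone/DMF with alkylaryl polyglycol ether emulsifier, diluted in water, then populated with caterpillars after drying. Efficacy in % after 7 days: 100% all caterpillars killed, 0% none.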

Cc1cc(/C=C/C(=O)NC(c2cccc(C(F)(F)F)c2)C(F)(F)F)ccc1C(=O)NCc1ccccn1 (stereo not drawn) [Ia-22]
kill rate in % (efficacy) (Ctenocephalides felis): 100%
logP [1]: HPLC-MS: logP = 2.65; mass
efficacy in % (fertile eggs laid) (Boophilus microplus [2]): 100%
efficacy in % [3]: 100%
efficacy in % ([4]; application rate 500 g/ha): 100%
kill rate in % (efficacy) (Lucilia cuprina larvae [5]): 90%
efficacy in % (fertile eggs laid) (Boophilus microplus [6]): 100%

O=C(/C=C/c1ccc(C(=O)NC2CC2)c(C(F)(F)F)c1)NC(c1cc(Cl)cc(Cl)c1)C(F)(F)F (stereo not drawn) [Ia-24]
kill rate in % (efficacy) (Ctenocephalides felis): 100%
logP [1]: HPLC-MS: logP = 3.5; mass
efficacy in % (fertile eggs laid) (Boophilus microplus [2]): 100%
kill rate in % (efficacy) (Lucilia cuprina larvae [5]): 80%
efficacy in % (fertile eggs laid) (Boophilus microplus [6]): 100%

CC(NC(=O)c1ccc(/C=C/C(=O)NC(c2c(F)cccc2F)C(F)(F)F)cc1C(F)(F)F)C(F)(F)F (stereo not drawn) [Ia-29]
logP [1]: HPLC-MS: logP = 3.41; mass
efficacy in % (fertile eggs laid) (Boophilus microplus [2]): 100%
kill rate in % (efficacy) (Lucilia cuprina larvae [7]): 80%
efficacy in % (fertile eggs laid) (Boophilus microplus [6]): 100%

O=C(/C=C/c1ccc(C(=O)NCc2ccccc2)c(C(F)(F)F)c1)NC(c1cccc(C(F)(F)F)c1)C(F)(F)F (stereo not drawn) [Ia-31]
kill rate in % (efficacy) (Ctenocephalides felis): 95%
logP [1]: HPLC-MS: logP = 3.68; mass
efficacy in % (fertile eggs laid) (Boophilus microplus [2]): 100%
kill rate in % (efficacy) (Lucilia cuprina larvae [7]): 90%
efficacy in % (fertile eggs laid) (Boophilus microplus [6]): 100%

O=C(/C=C/c1ccc(C(=O)NC2CC2)c(C(F)(F)F)c1)NC(c1cc(Cl)cc(C(F)(F)F)c1)C(F)(F)F (stereo not drawn) [Ia-40, 4-[(1E,Z)-3-({1-[3-Chloro-5-(trifluoromethyl)phenyl]-2,2,2-trifluoroethyl}amino)-3-oxoprop-1-en-1-yl]-N-cyclopropyl-2-(trifluoromethyl)benzamide]
kill rate in % (efficacy) (Ctenocephalides felis): 100%
chromatographic logP ([1]; reverse-phase C18 HPLC column, pH 2.7, HPLC, C18 reverse phase, 43° C., acidic range pH 2.7, calibration with alkan-2-ones): 3.68
pest or weed control at 0.02 mg (Boophilus microplus [2]; Rhipicephalus microplus, 168 h, read-out: efficacy in % (fertile eggs laid)): 100%
kill rate in % (efficacy) (Musca domestica adults): 85%
kill rate in % (efficacy) (Lucilia cuprina larvae [5]): 90%
efficacy in % (fertile eggs laid) (Boophilus microplus [6]): 100%

O=C(/C=C/c1ccc(C(=O)NC2CC2)c(Br)c1)NC(c1cccc(C(F)(F)F)c1)C(F)(F)F (stereo not drawn) [Ia-42]
kill rate in % (efficacy) (Ctenocephalides felis): 100%
logP [1]: HPLC-MS: logP = 3.23; mass
efficacy in % (fertile eggs laid) (Boophilus microplus [2]): 100%
kill rate in % (efficacy) (Lucilia cuprina larvae [5]): 100%
efficacy in % (fertile eggs laid) (Boophilus microplus [6]): 100%

O=C(/C=C/c1ccc(C(=O)NC2CC2)c(Cl)c1)NC(c1cccc(C(F)(F)F)c1)C(F)(F)F (stereo not drawn) [Ia-43]
kill rate in % (efficacy) (Ctenocephalides felis): 100%
logP [1]: HPLC-MS: logP = 3.22; mass
efficacy in % (fertile eggs laid) (Boophilus microplus [2]): 100%
efficacy in % [3]: 100%
efficacy in % ([4]; application rate 500 g/ha): 80%
kill rate in % (efficacy) (Lucilia cuprina larvae [5]): 100%
efficacy in % (fertile eggs laid) (Boophilus microplus [6]): 100%

O=C(/C=C/c1ccc(C(=O)NCC(F)(F)F)c(Br)c1)NC(c1cccc(C(F)(F)F)c1)C(F)(F)F (stereo not drawn) [Ia-45]
kill rate in % (efficacy) (Ctenocephalides felis): 98%
logP [1]: HPLC-MS: logP = 3.60; mass
efficacy in % (fertile eggs laid) (Boophilus microplus [2]): 100%
kill rate in % (efficacy) (Musca domestica adults): 100%
kill rate in % (efficacy) (Lucilia cuprina larvae [5]): 100%
efficacy in % (fertile eggs laid) (Boophilus microplus [6]): 100%

CN(C(=O)c1ccc(/C=C/C(=O)NC(c2cccc(C(F)(F)F)c2)C(F)(F)F)cc1C(F)(F)F)C1CC1 (stereo not drawn) [Ia-60]
kill rate in % (efficacy) (Ctenocephalides felis): 100%
logP [1]: HPLC-MS: logP = 3.62; mass
efficacy in % (fertile eggs laid) (Boophilus microplus [2]): 100%
kill rate in % (efficacy) (Musca domestica adults): 95%
efficacy in % [3]: 100%
kill rate in % (efficacy) (Lucilia cuprina larvae [5]): 90%
efficacy in % [8]: 90%
efficacy in % (fertile eggs laid) (Boophilus microplus [6]): 100%

O=C(/C=C/c1ccc(C(=O)NCc2ccc(F)cn2)c(C(F)(F)F)c1)NC(c1cccc(C(F)(F)F)c1)C(F)(F)F (stereo not drawn) [Ia-73]
kill rate in % (efficacy) (Ctenocephalides felis): 95%
logP [1]: HPLC-MS: logP = 3.31; mass
efficacy in % (fertile eggs laid) (Boophilus microplus [2]): 100%
kill rate in % (efficacy) (Lucilia cuprina larvae [7]): 80%
efficacy in % [3]: 100%
efficacy in % [8]: 100%
efficacy in % (fertile eggs laid) (Boophilus microplus [6]): 100%

O=C(/C=C/c1ccc(C(=O)NCc2ccc(Cl)nc2)c(C(F)(F)F)c1)NC(c1cccc(C(F)(F)F)c1)C(F)(F)F (stereo not drawn) [Ia-80]
kill rate in % (efficacy) (Ctenocephalides felis): 100%
logP [1]: HPLC-MS: logP = 3.65; mass
efficacy in % (fertile eggs laid) (Boophilus microplus [2]): 100%
kill rate in % (efficacy) (Lucilia cuprina larvae [7]): 80%
efficacy in % [3]: 100%
efficacy in % (fertile eggs laid) (Boophilus microplus [6]): 100%

O=C(/C=C/c1ccc(C(=O)NC2COC2)c(Br)c1)NC(c1cccc(C(F)(F)F)c1)C(F)(F)F (stereo not drawn) [Ia-94]
logP [1]: HPLC-MS: logP = 2.8 mass
efficacy in % (fertile eggs laid) (Boophilus microplus [2]): 100%
kill rate in % (efficacy) (Lucilia cuprina larvae [7]): 95%
efficacy in % [3]: 100%
efficacy in % [8]: 80%

CC(NC(=O)c1ccc(/C=C/C(=O)NC(c2cccc(C(F)(F)F)c2)C(F)(F)F)cc1C(F)(F)F)c1ccccn1 (stereo not drawn) [Ia-128]
logP [1]: HPLC-MS: logP = 3.22; mass
efficacy in % (fertile eggs laid) (Boophilus microplus [2]): 100%
kill rate in % (efficacy) (Lucilia cuprina larvae [7]): 90%

CC(NC(=O)c1ccc(/C=C/C(=O)NC(c2cccc(C(F)(F)F)c2)C(F)(F)F)cc1Br)c1ccccn1 (stereo not drawn) [Ia-134]
logP [1]: HPLC-MS: logP = 3.11; mass
efficacy in % (fertile eggs laid) (Boophilus microplus [2]): 100%
kill rate in % (efficacy) (Lucilia cuprina larvae [7]): 90%

CC(Cn1cccn1)NC(=O)c1ccc(/C=C/C(=O)NC(c2cccc(C(F)(F)F)c2)C(F)(F)F)cc1C(F)(F)F (stereo not drawn) [Ia-139]
logP [1]: HPLC-MS: logP = 3.42; mass
efficacy in % (fertile eggs laid) (Boophilus microplus [2]): 100%
kill rate in % (efficacy) (Lucilia cuprina larvae [7]): 80%

NC(=O)c1ccc(/C=C/C(=O)NC(c2cccc(C(F)(F)F)c2)C(F)(F)F)cc1C(F)(F)F (stereo not drawn) [Ia-142]
logP [1]: HPLC-MS: logP = 2.89; mass
efficacy in % (fertile eggs laid) (Boophilus microplus [2]): 100%
kill rate in % (efficacy) (Lucilia cuprina larvae [7]): 90%
kill rate in % (efficacy) (Musca domestica adults): 90%
efficacy in % ([4]; application rate 100 g/ha): 100%

CNC(=O)c1ccc(/C=C/C(=O)NC(c2cccc(C(F)(F)F)c2)C(F)(F)F)cc1C(F)(F)F (stereo not drawn) [Ia-147]
logP [1]: HPLC-MS: logP = 3.09; mass
efficacy in % (fertile eggs laid) (Boophilus microplus [2]): 100%
kill rate in % (efficacy) (Lucilia cuprina larvae [7]): 80%
efficacy in % [9]: 100%

O=C(/C=C/c1ccc(C(=O)NC2CSC2)c(Cl)c1)NC(c1cccc(C(F)(F)F)c1)C(F)(F)F (stereo not drawn) [Ia-152]
logP [1]: HPLC-MS: logP = 3.51; mass
efficacy in % (fertile eggs laid) (Boophilus microplus [2]): 100%
kill rate in % (efficacy) (Lucilia cuprina larvae [7]): 90%
efficacy in % ([4]; application rate 100 g/ha): 80%
